The results in this text go back to patent US20030153539A1, “Method to potentiate the therapeutic efficacy of taxane and derivatives thereof” (priority 2000, published 2003).

One data set addresses T1, CYP1A2 (Homo sapiens, UniProt P05177).
T1 sequence (P05177 1-516): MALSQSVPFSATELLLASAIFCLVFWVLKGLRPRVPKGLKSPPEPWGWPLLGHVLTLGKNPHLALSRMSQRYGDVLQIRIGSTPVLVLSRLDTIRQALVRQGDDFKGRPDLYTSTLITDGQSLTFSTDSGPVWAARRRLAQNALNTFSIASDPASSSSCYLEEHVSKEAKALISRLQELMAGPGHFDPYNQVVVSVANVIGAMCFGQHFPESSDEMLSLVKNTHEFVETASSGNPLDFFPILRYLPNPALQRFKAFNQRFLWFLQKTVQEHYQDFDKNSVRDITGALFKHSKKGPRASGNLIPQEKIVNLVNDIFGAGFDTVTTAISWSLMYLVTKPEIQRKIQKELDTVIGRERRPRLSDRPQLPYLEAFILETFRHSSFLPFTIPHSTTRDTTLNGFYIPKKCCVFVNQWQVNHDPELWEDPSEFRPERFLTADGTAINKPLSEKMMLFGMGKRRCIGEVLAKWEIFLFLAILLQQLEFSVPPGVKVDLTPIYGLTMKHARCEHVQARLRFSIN
Kind of data set: In vitro inhibition of cDNA expressed human CYP1A2 (chlorzoxazone substrate, radio-HPLC). The settings on record: mean of n=3. The procedure:
(§1) All incubations were conducted in triplicate.
(§2) See table 2 for HPLC mobile phase conditions.

A further data set addresses CYP3A4 (Homo sapiens, UniProt P08684). As to the kind of experiment: In vitro inhibition of cDNA expressed human CYP3A4 (testosterone substrate, radio-HPLC). The settings on record: for percentage of activity remaining in the presence of the compound: mean of n=3. The procedure:
as §1, §2

Another data set has as its target CYP2C9 (Homo sapiens, UniProt P11712). Kind of data set: In vitro inhibition of cDNA expressed human CYP2C9 (diclofenac substrate, radio-HPLC). The settings on record: mean of n=3. The procedure:
as §1, §2

The next data set addresses CYP2C19 (Homo sapiens, UniProt P33261). Kind of data set: In vitro inhibition of cDNA expressed human CYP2C19 ((S)-mephenytoin substrate, radio-HPLC). The settings on record: control 100%, mean of n=3. The procedure:
as §1, §2

The target in a further data set is CYP2D6 (Homo sapiens, UniProt P10635). As to the kind of experiment: In vitro inhibition of cDNA expressed human CYP2D6 (delavirdine substrate, radio-HPLC). The settings on record: mean of n=3. The procedure:
as §1, §2

The next data set addresses T2, CYP2C8 (Homo sapiens, UniProt P10632).
T2 construct: purchased Gentest (Woburn, Mass., USA)
T2 sequence (P10632 1-490): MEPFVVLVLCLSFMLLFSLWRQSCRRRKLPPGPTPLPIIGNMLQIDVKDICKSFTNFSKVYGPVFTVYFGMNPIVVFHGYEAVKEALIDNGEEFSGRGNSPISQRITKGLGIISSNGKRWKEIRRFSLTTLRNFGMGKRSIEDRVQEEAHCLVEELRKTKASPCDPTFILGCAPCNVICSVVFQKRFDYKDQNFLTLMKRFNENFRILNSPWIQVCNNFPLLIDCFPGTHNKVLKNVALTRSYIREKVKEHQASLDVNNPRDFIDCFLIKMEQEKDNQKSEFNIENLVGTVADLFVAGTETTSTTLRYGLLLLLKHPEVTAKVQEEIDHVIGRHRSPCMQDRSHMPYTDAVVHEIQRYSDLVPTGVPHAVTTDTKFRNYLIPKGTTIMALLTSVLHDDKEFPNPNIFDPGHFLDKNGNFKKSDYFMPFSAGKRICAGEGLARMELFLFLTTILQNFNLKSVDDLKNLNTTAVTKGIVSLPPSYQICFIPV
Kind of data set: Inhibition of CYP2C8 mediated 6α-hydroxylation of paclitaxel (human CYP2C8 cDNA expressed microsomes, HPLC-UV). The settings on record: 20 μM paclitaxel. Type of data set: biochemical. The procedure:
A 100 μl reaction mixture containing 4 pmol CYP2C8, […] paclitaxel (5 mM paclitaxel stock in ethanol) and NADPH (2 mM) in 50 mM potassium phosphate buffer (pH 7.4) was incubated at 37° C. for 40 min in the absence (solvent only) and presence of either 100 μM estramustine or estromustine.
Estramustine and estromustine were dissolved in DMSO:CH3CN (1:1). The reaction was stopped by addition of 50 μl CH3CN followed by an additional 50 μl of mobile phase. […] All incubations were conducted in triplicate.
See table 2 for HPLC mobile phase conditions. Both paclitaxel and the metabolite 6a-hydroxypaclitaxel were detected by its absorbance at 230 nm.
To investigate if estramustine and estromustine were able to inhibit CYP2C8 mediated enzyme activities, human CYP2C8 cDNA expressed microsomes were incubated with paclitaxel in the presence of either estramustine or estromustine.

The mark [1] stands for this setting: CYP1A2, compound at 100 μM, control 100%.
[2] abbreviates: CYP3A4, compound at 100 μM, control 100%.
The mark [3] stands for this setting: CYP2C9, compound at 100 μM, control 100%.
The mark [4] stands for this setting: CYP2D6, compound at 100 μM, control 100%.

CYP2D6, sequence (P10635 whole entry): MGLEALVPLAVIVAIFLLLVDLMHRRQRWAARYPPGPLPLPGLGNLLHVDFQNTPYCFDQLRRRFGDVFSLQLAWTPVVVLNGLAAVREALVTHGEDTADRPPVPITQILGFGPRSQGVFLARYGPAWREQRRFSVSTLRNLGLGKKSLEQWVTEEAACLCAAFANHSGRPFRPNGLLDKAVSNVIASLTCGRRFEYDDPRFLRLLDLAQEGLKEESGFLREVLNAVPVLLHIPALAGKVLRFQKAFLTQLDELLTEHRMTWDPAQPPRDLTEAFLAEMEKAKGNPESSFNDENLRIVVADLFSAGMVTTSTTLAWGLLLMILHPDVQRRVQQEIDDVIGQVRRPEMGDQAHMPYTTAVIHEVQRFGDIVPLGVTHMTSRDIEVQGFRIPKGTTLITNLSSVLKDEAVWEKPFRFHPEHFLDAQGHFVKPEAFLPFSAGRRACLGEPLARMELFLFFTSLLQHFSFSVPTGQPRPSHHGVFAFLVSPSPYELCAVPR
CYP2C9, sequence (P11712 whole entry): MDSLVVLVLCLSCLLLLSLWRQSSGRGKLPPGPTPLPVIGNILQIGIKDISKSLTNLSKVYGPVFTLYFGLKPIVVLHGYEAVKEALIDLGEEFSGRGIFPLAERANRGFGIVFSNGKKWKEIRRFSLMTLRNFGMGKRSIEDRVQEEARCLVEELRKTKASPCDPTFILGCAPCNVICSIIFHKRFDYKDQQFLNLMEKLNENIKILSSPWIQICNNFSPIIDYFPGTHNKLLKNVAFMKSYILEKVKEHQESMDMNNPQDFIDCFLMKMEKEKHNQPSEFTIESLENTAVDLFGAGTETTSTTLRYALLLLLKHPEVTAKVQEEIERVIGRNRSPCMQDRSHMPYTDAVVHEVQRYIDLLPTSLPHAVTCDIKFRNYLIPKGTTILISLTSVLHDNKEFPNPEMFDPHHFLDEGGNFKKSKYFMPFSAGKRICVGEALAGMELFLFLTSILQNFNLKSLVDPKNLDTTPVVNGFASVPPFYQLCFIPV
CYP2C19, sequence (P33261 whole entry): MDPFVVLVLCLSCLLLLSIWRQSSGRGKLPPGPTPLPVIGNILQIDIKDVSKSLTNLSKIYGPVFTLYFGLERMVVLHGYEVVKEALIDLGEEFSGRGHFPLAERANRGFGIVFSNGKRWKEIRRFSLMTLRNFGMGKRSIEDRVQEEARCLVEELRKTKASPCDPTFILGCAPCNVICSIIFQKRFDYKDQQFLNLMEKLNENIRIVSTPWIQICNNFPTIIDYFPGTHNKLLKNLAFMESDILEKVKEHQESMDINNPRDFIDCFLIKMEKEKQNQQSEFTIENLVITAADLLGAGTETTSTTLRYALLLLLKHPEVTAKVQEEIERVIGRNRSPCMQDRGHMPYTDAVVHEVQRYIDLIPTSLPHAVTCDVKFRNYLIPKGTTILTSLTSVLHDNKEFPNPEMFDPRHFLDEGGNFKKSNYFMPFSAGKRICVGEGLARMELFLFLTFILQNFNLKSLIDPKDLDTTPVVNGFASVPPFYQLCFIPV
CYP3A4, sequence (P08684 whole entry): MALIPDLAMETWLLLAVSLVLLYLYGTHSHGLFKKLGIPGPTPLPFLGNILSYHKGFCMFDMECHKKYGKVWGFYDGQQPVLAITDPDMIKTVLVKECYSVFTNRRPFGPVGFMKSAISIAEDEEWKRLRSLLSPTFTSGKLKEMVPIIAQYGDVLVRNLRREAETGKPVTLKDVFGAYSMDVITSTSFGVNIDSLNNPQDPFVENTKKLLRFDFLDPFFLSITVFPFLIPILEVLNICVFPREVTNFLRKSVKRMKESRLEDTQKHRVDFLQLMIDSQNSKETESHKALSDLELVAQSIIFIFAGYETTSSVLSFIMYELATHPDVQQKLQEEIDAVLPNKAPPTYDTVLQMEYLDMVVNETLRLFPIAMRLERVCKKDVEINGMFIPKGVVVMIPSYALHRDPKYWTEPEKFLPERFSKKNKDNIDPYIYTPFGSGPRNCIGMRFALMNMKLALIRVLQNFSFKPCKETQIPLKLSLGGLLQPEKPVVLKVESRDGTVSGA

For orientation: inhibition means the change of the read-out against control, counted positive when it falls. Read a low inhibition as a weak effect. In the case of `C[C@]12CC[C@@H]3c4ccc(OC(=O)N(CCCl)CCCl)cc4CC[C@H]3[C@@H]1CC[C@@H]2O` [Estramustine, estramustine], the “percentage of activity remaining in the presence of the compound” value (“percentage of activity remaining” below) is recorded as 57.2% on CYP1A2 (setting [1]); 72.7% on CYP1A2 (CYP1A2, control 100%); 20.2% on CYP3A4 (setting [2]); 27.0% on CYP3A4 (CYP3A4, control 100%); 58.8% on CYP2C9 (setting [3]); 56.4% on CYP2C9 (CYP2C9, control 100%). For the same compound, the “percentage of activity remaining” value is 40.1% on CYP2C19 (CYP2C19, compound at 100 μM); 37.9% at CYP2C19 (CYP2C19, first estramustine column, head prints 100 μM); 32.7% at CYP2D6 (setting [4]); 38.0% at CYP2D6 (CYP2D6, control 100%). On CYP3A4 (human), the inhibition at 90 min, 100 µM was roughly 80%. This compound yielded an inhibition at 40 min, 100 μM at CYP2C8 (human, microsomes, pH 7.4, CYP2C8, compound at 100 μM) of 40%.

With `C[C@]12CC[C@@H]3c4ccc(OC(=O)N(CCCl)CCCl)cc4CC[C@H]3[C@@H]1CCC2=O` [Estromustine, estromustine], the “percentage of activity remaining” value on CYP1A2 (CYP1A2, compound at 10 μM, control 100%) was 85.0%; on CYP1A2 (setting [1]), 68.4%; on CYP3A4 (CYP3A4, compound at 10 μM, control 100%) it was 43.2%; at CYP3A4 (setting [2]), 33.1%; at CYP2C9 (CYP2C9, compound at 10 μM, control 100%), 92.5%; at CYP2C9 (setting [3]) it was 86.9%. Further, the “percentage of activity remaining” value amounted to 90.6% at CYP2C19 (CYP2C19, compound at 10 μM); 81.0% at CYP2C19 (CYP2C19, compound at 100 μM); 64.1% at CYP2D6 (CYP2D6, compound at 10 μM, control 100%); 76.9% on CYP2D6 (setting [4]). Besides, the “inhibition of 6α-hydroxylation of paclitaxel” value at CYP2C8 (CYP2C8, compound at 100 μM, 40 min) is 20%.
